# In patent publication US20070134261A1, “Effectors of innate immunity” (priority 2001, published 2007):
# Several values for one entry are separate records, joined by “and”; a condition that tells them apart may be missing. Equal entries are not always repeated.
# Tested on: human A549 epithelial cells
# Assay: Resgen Human cDNA arrays (PRHU03-S3) of A549 cells treated with peptide (Tables 21-26)
# Details: 50 μg/ml, 4 h
smiles,measurement,setting,value
CC[C@H](C)[C@H](N)C(=O)N[C@@H](CC(C)C)C(=O)N1CCC[C@H]1C(=O)N[C@@H](Cc1c[nH]c2ccccc12)C(=O)N[C@@H](CCCCN)C(=O)N[C@@H](Cc1c[nH]c2ccccc12)C(=O)N1CCC[C@H]1C(=O)N[C@@H](Cc1c[nH]c2ccccc12)C(=O)N[C@@H](Cc1c[nH]c2ccccc12)C(=O)N1CCC[C@H]1C(=O)N[C@@H](Cc1c[nH]c2ccccc12)C(=O)N[C@@H](CCCNC(=N)N)C(=O)N[C@@H](CCCNC(=N)N)C(N)=O [SEQ ID NO: 2],"Ratio Peptide:Unstimulated, catenin (cadherin-associated protein), delta 1",AA025276,1.2
same,"Ratio Peptide:Unstimulated, integrin, beta 3",AA037229,2.7
same,"Ratio Peptide:Unstimulated, Epstein-Barr virus induced polynucleotide 2",AA037376,1.6
same,"Ratio Peptide:Unstimulated, disintegrin and metalloproteinase domain 10",AA043347,1.5
same,"Ratio Peptide:Unstimulated, MAP kinase kinase kinase kinase 3",AA043537,0.45
same,"Ratio Peptide:Unstimulated, protein tyrosine phosphatase, receptor type, J",AA045326,3.6
same,"Ratio Peptide:Unstimulated, MAP kinase kinase kinase 12",AA053674,0.20
same,"Ratio Peptide:Unstimulated, integrin, alpha 7",AA055979,0.57
same,"Ratio Peptide:Unstimulated, leukocyte immunoglobulin-like receptor, subfamily B (with TM and ITIM domains), member 4",AA076350,0.75
same,"Ratio Peptide:Unstimulated, phospholipase A2 receptor 1",AA086038,2.8
same,"Ratio Peptide:Unstimulated, IL-8",AA102526,3.6
same,"Ratio Peptide:Unstimulated, cadherin 11, type 2, OB-cadherin (osteoblast)",AA136983,0.23
same,"Ratio Peptide:Unstimulated, TNF R superfamily, member 1B","AA150416, listed as ID 2",18 and 17.09
same,"Ratio Peptide:Unstimulated, MAP kinase 9",AA157286,0.57
same,"Ratio Peptide:Unstimulated, macrophage stimulating 1 R",AA173454,1.7
same,"Ratio Peptide:Unstimulated, killer cell lectin-like receptor subfamily C, member 2",AA190627,9.7
same,"Ratio Peptide:Unstimulated, TNF R superfamily, member 11b","AA194983, listed as ID 2",5.3 and 5.29
same,"Ratio Peptide:Unstimulated, disintegrin and metalloproteinase domain 8",AA279188,3.1
same,"Ratio Peptide:Unstimulated, BCL2-interacting killer (apoptosis-inducing)",AA291323,1.9
same,"Ratio Peptide:Unstimulated, disintegrin-like and metalloprotease with thrombosondin type 1 motif, 3",AA398492,0.32
same,"Ratio Peptide:Unstimulated, MAP kinase kinase kinase 4",AA402447,0.37
same,"Ratio Peptide:Unstimulated, prostaglandin E receptor 3 (subtype EP3)",AA406362,4.1
same,"Ratio Peptide:Unstimulated, MAP kinase kinase kinase kinase 4",AA417711,0.96
same,"Ratio Peptide:Unstimulated, MAP kinase 8 interacting protein 2",AA418293,0.07
same,"Ratio Peptide:Unstimulated, integrin, alpha 3 (antigen CD49C, alpha 3 subunit of VLA-3 receptor)",AA424695,0.8
same,"Ratio Peptide:Unstimulated, cadherin 3, type 1, P-cadherin (placental)",AA425217,0.43
same,"Ratio Peptide:Unstimulated, integrin, alpha E",AA425451,180
same,"Ratio Peptide:Unstimulated, formyl peptide receptor 1",AA425767,3.1
same,"Ratio Peptide:Unstimulated, MAP kinase kinase 2",AA425826,1.20
same,"Ratio Peptide:Unstimulated, cytokine inducible SH2-containing protein",AA427521,33
same,"Ratio Peptide:Unstimulated, integrin, beta 5",AA434397,0.32
same,"Ratio Peptide:Unstimulated, protein tyrosine phosphatase, non-receptor type 9",AA434420,3.5
same,"Ratio Peptide:Unstimulated, protein tyrosine phosphatase, non-receptor type 12",AA446259,2.3
same,"Ratio Peptide:Unstimulated, caspase 8, apoptosis-related cysteine protease",AA448468,2.2
same,"Ratio Peptide:Unstimulated, growth factor receptor-bound protein 2",AA449831,2.2
same,"Ratio Peptide:Unstimulated, endothelin receptor type A",AA450009,12
same,"Ratio Peptide:Unstimulated, integrin, alpha 1",AA450324,0.41
same,"Ratio Peptide:Unstimulated, Human proteinase activated R-2",AA454652,6.1
same,"Ratio Peptide:Unstimulated, IL-11 R alpha",AA454657,2.4
same,"Ratio Peptide:Unstimulated, CSF 3 R",AA458507,1.9
same,"Ratio Peptide:Unstimulated, integrin, alpha 10",AA460959,0.33
same,"Ratio Peptide:Unstimulated, MAP kinase kinase kinase 7",AA460969,0.97
same,"Ratio Peptide:Unstimulated, NK cell R",AA463248,2.5
same,"Ratio Peptide:Unstimulated, integrin, alpha 2 (CD49B, alpha 2 subunit of VLA-2 receptor)",AA463257,0.9
same,"Ratio Peptide:Unstimulated, IL-1 receptor, type I",AA464526,0.34
same,"Ratio Peptide:Unstimulated, protein tyrosine phosphatase, receptor type, E",AA464542,0.23
same,"Ratio Peptide:Unstimulated, protein tyrosine phosphatase, receptor type, N polypeptide 2",AA464590,0.02
same,"Ratio Peptide:Unstimulated, protein tyrosine phosphatase, receptor-type, Z polypeptide 1",AA476461,0.63
same,"Ratio Peptide:Unstimulated, intercellular adhesion molecule 3",AA479188,0.12
same,"Ratio Peptide:Unstimulated, protein tyrosine phosphatase, receptor type, C-associated protein",AA481547,5.1
same,"Ratio Peptide:Unstimulated, IL-18 receptor 1",AA482489,0.50
same,"Ratio Peptide:Unstimulated, vitamin D R",AA485226,2.5
same,"Ratio Peptide:Unstimulated, integrin, beta 4",AA485668,0.8
same,"Ratio Peptide:Unstimulated, IL-10 R beta","AA486393, listed as ID 2",2.5 and 2.51
same,"Ratio Peptide:Unstimulated, calcium and integrin binding protein",AA487575,2.8
same,"Ratio Peptide:Unstimulated, TRAF and TNF receptor-associated protein",AA488650,0.75
same,"Ratio Peptide:Unstimulated, cytokine-inducible kinase",AA489234,0.41
same,"Ratio Peptide:Unstimulated, small inducible cytokine subfamily A (Cys—Cys), member 18",AA495985,0.32
same,"Ratio Peptide:Unstimulated, programmed cell death 8 (apoptosis-inducing factor)",AA496348,1.07
same,"Ratio Peptide:Unstimulated, melanoma adhesion molecule",AA497002,7.9
same,"Ratio Peptide:Unstimulated, TNF receptor-associated factor 3",AA504259,0.15
same,"Ratio Peptide:Unstimulated, apoptosis-related protein PNAS-1",AA521316,2.2
same,"Ratio Peptide:Unstimulated, complement component receptor 2",AA521362,26
same,"Ratio Peptide:Unstimulated, laminin R 1 (67 kD, ribosomal protein SA)",AA629897,0.4
same,"Ratio Peptide:Unstimulated, protein tyrosine phosphatase, receptor type, U",AA644448,6.1
same,"Ratio Peptide:Unstimulated, integrin, beta 3",AA666269,2.6
same,"Ratio Peptide:Unstimulated, regulator of G-protein signaling 5",AA668470,0.27
same,"Ratio Peptide:Unstimulated, T cell R delta locus",AA670107,2.7
same,"Ratio Peptide:Unstimulated, small inducible cytokine A3 (homologous to mouse Mip-1a)",AA677522,1.79
same,"Ratio Peptide:Unstimulated, protein tyrosine phosphatase, non-receptor type 13",AA679180,1.7
same,"Ratio Peptide:Unstimulated, protein tyrosine phosphatase, non-receptor type 3",AA682684,1.0
same,"Ratio Peptide:Unstimulated, v-SNARE R",AA704511,11
same,"Ratio Peptide:Unstimulated, adenosine A3 R",AA863086,2.0
same,"Ratio Peptide:Unstimulated, integrin, alpha 9",AA865557,0.86
same,"Ratio Peptide:Unstimulated, small inducible cytokine subfamily B (Cys-X-Cys), member 10",AA878880,0.50
same,"Ratio Peptide:Unstimulated, interleukin enhancer binding factor 2",AA894687,1.3
same,"Ratio Peptide:Unstimulated, IL-2 receptor, alpha",AA903183,0.41
same,"Ratio Peptide:Unstimulated, small inducible cytokine subfamily A (Cys—Cys), member 23",AA916836,0.38
same,"Ratio Peptide:Unstimulated, CD2","AA927710, listed as ID 2",2.6 and 2.62
same,"Ratio Peptide:Unstimulated, prostaglandin E receptor 1 (subtype EP1)",AA972293,7.2
same,"Ratio Peptide:Unstimulated, IL-12 receptor, beta 2",AA977194,0.67
same,"Ratio Peptide:Unstimulated, protein tyrosine phosphatase, non-receptor type 11",AA995560,2.9
same,"Ratio Peptide:Unstimulated, integrin beta 4 binding protein",AI017019,1.7
same,"Ratio Peptide:Unstimulated, VIP R 2",AI057229,3.1
same,"Ratio Peptide:Unstimulated, orphan seven-transmembrane receptor, chemokine related",AI131555,1.06
same,"Ratio Peptide:Unstimulated, IL-1 R antagonist homolog 1","AI167887, listed as ID 2",3086 and 3085.96
same,"Ratio Peptide:Unstimulated, MAP kinase 8 interacting protein 2",AI202738,0.16
same,"Ratio Peptide:Unstimulated, disintegrin and metalloproteinase domain 18",AI205675,0.40
same,"Ratio Peptide:Unstimulated, regulator of G-protein signaling 20",AI264190,48
